# Assay results as given in publication PMC11671014 (PLOS Pathogens, 2024).
# “Also recorded” adds a separate entry of the source. Read-outs that look alike come from different tables or passages of the source.
# Columns and labels:
# [1] = tested on: CAM 3.II Rev parasites, trophozoite and schizont stages; assay: Pulsed exposure viability of trophozoite and schizont stages, flow cytometry of Syto-61-labelled parasites; type: cell-based, Plasmodium falciparum; details: for LD50 Troph: trophozoite
# [2] = tested on: P. falciparum liver stage schizont (NF175); parameters: method as in ref [1] Xie et al., Science 2022; details: ref [1] Xie et al., Science 2022; cited from earlier work
# [3] = Rat pharmacokinetics; type: in vivo, Sprague-Dawley rats; details: for half-life: read-out: T1/2z (converted)
# Protocol: Sprague-Dawley rats (11 weeks old) were sourced from Hilltop Lab Animals, Inc (Scottdale, Pennsylvania, USA). […] Blood was collected from a jugular cannula at 0.083, 0.25, 0.5, 1, 2, 4, 8 and 24 h post i.v. dosing, and at the same times (except the 0.083-h sample) following oral administration. A portion of the blood samples were processed into plasma. Samples were precipitated with 0.5% formic acid in methanol and the supernatants were analysed by positive ion electrospray LC-MS for the administered compound. Non-compartmental pharmacokinetic parameters were calculated from individual concentration vs time profiles using Phoenix 64 WinNonlin (Version 8.1 Certara, Princeton NJ).
# [4] = tested on: P. falciparum liver stage schizont (NF175); assay: Liver stage schizont assay in primary human hepatocytes (NF175); type: cell-based; details: Plasmodium falciparum, Hepatocyte, 96 h, four days
# Protocol: Activity against liver stage parasites was performed using a modification of published procedures. Briefly, cryopreserved human primary hepatocytes (NF175: H1500.H15B+ Lot No. HC0-6, TebuBio or NF135: F00995-P Lot No. IRZ, BioIVT) were thawed and seeded at 18,000 cells per well in collagen-coated 384-well microtiter plates in medium containing 10% heat inactivated fetal bovine serum (hiFBS). Cells were cultured at 37°C in 5% CO2. For NF175, medium was replaced by fresh medium containing 10% hiFBS, 5 h post plating. For NF135, medium was replaced by medium containing 0.2% BSA, 24 h post plating. 48 h post plating, salivary glands from Plasmodium-NF175 or NF135-infected Anopheles stephensi mosquitoes were dissected, added to the hepatocytes (10,000 per well/ NF175; or 12,500 per well/ NF135) and allowed to infect for 3 hours. Sporozoites were then aspirated, and compounds diluted in medium containing 10% hiFBS or 0.2% BSA, were added to the hepatocytes. Medium containing 10% hiFBS or 0.2% BSA and compounds was refreshed daily for four days. […] Cells were imaged on a PicoExpress high content imager, and images were analysed automatically using CellReporterXpress software. Data were analysed by logistic regression using a four-parameter (Hill equation) model and a least-squares method to find the best fit.
# [5] = tested on: P. vivax Brazilian field isolates; assay: Ex vivo drug susceptibility of Brazilian field isolates (P. vivax); type: cell-based; details: Plasmodium vivax
# Protocol: Compounds were assayed on ten P. vivax isolates and seven P. falciparum Brazilian isolates collected from mono-infected patients, who had signed a written informed consent form to participate in the study, using previously described methods. The initial parasitemia ranged from 2,100–8,000 parasites/μL for P. vivax and 3,500–9,000 parasites/μL for P. falciparum isolates. Artesunate and chloroquine were assayed in parallel as standard compounds. The analyses included only the isolates that were incubated for ≥ 40 h with the compounds.
# [6] = tested on: P. falciparum (Pf3D7^0087/N9); assay: Therapeutic efficacy and tolerability in the SCID mouse P. falciparum model; type: in vivo, Plasmodium falciparum in NODscidIL2Rγ^null mice
# Protocol: The model using P. falciparum Pf3D7^0087/N9 in NODscidIL2Rγ^null mice engrafted with human RBCs was adapted from a previously described procedure. Female NODscidIL2Rγ^null mice were purchased from Charles River (Germany). Briefly, two engrafted mice/dosing group (females, 20–22 g) were infected intravenously with 2 x 10^7 P. falciparum (Pf3D7^0087/N9) on day 0. The antimalarial efficacy was assessed following administration (p.o.) of 100 or 200 mg/kg of compound or of 4 daily doses of 50 mg/kg, initiated on day 3 post-infection. The effect on blood parasitemia was measured by microscopic analysis of Giemsa-stained blood smears (on days 3, 4, 5, 6 and 7 post-infection). Mice were euthanized on day 7. Animal were monitored for symptoms of acute toxicity, including decreased activity, sunken flanks, ataxia and blood in faeces.
# [7] = Solubility; type: physicochemical
# [8] = male, Sprague-Dawley, IV 1 mg/kg, plasma
# [9] = male, Sprague-Dawley, PO 1 mg/kg, plasma
# [10] = male, Sprague-Dawley, PO 10 mg/kg, plasma
# [11] = male, Sprague-Dawley, PO 25 mg/kg, plasma
# [12] = male, Sprague-Dawley, whole blood, IV 1 mg/kg, blood
# [13] = male, Sprague-Dawley, whole blood, PO 1 mg/kg, blood
# [14] = male, Sprague-Dawley, whole blood, PO 10 mg/kg, blood
# [15] = male, Sprague-Dawley, whole blood, PO 25 mg/kg, blood
smiles,measurement,setting,value
Nc1ncnc2c1c(OC(F)F)nn2[C@@H]1O[C@H](COS(N)(=O)=O)[C@@H](O)[C@H]1O [ML901],LD50 Schizont,[1]; 30 h continuous,8.5 ± 0.7 nM
same,LD50 Schizont,[1]; drug pulse time 3 h,88 ± 1 nM
same,LD50 Schizont,[1]; drug pulse time 6 h,36 ± 6 nM
same,LD50 Schizont,[1]; drug pulse time 9 h,21 ± 12 nM
same,fold lower sensitivity of trophozoite stage compared with schizont stage,[1]; short pulses of 3 h or 6 h,10 to 20 fold
same,LD50 Troph,[1]; 48 h continuous,3.9 ± 0.8 nM
same,LD50 Troph,[1]; drug pulse time 3 h,1700 ± 460 nM
same,LD50 Troph,[1]; drug pulse time 6 h,680 ± 48 nM
same,LD50 Troph,[1]; drug pulse time 9 h,290 ± 150 nM
same,LD50 Troph,[1]; drug pulse time 24 h,4.0 ± 0.0 nM
same,IC50,[2],13 ± 5 nM
"CC(C)c1nn([C@@H]2O[C@H](COS(N)(=O)=O)[C@@H](O)[C@H]2O)c2ncnc(N)c12 [ML471, ((2R,3S,4R,5R)-5-(4-amino-3-isopropyl-1H-pyrazolo[3,4-d]pyrimidin-1-yl)-3,4-dihydroxytetrahydrofuran-2-yl)methyl sulfamate]",dose recovered in 0–24 h urine as parent,[3]; 0–24 h urine,9–38 % of the dose
same,area under the curve,"[3]; 25 mg/kg p.o., blood",30 µM·h
same,blood clearance as share of liver blood flow,[3]; IV dose of 1 mg/kg,~ 4 % of liver blood flow
same,Cmax,[3]; [8],1540 nM
same,Tmax,[3]; [8],0.08 h
same,clearance,[3]; [8],64 mL/min/kg
same,half-life,[3]; [8],2.22 h
same,Cmax,[3]; [9],19.1 nM
same,Tmax,[3]; [9],0.5 h
same,bioavailability,"[3]; male, Sprague-Dawley, PO 1 mg/kg, plasma, read-out: %F",27.7%
same,half-life,[3]; [9],8.78 h
same,Cmax,[3]; [10],196 nM
same,Tmax,[3]; [10],0.38 h
same,bioavailability,"[3]; male, Sprague-Dawley, PO 10 mg/kg, plasma, read-out: %F",25.2%
same,half-life,[3]; [10],9.15 h
same,Cmax,[3]; [11],393 nM
same,Tmax,[3]; [11],0.75 h
same,bioavailability,"[3]; male, Sprague-Dawley, PO 25 mg/kg, plasma, read-out: %F",16.4%
same,half-life,[3]; [11],3.57 h
same,Vd,"[3]; male, Sprague-Dawley, plasma, iv, 1 mg/kg, IV 1 mg/kg, plasma, read-out: Vss",2.79 L/kg
same,Vd,"[3]; male, Sprague-Dawley, plasma, iv, 1 mg/kg, IV 1 mg/kg, plasma, read-out: Vz",12.3 L/kg
same,blood plasma ratio at 0.083 h,"[3]; male, Sprague-Dawley, whole blood and plasma, intravenous, 1 mg/kg, time 0.083 h",0.8
same,blood plasma ratio at 0.25 h,"[3]; male, Sprague-Dawley, whole blood and plasma, intravenous, 1 mg/kg, time 0.25 h",1.5
same,blood plasma ratio at 0.5 h,"[3]; male, Sprague-Dawley, whole blood and plasma, intravenous, 1 mg/kg, time 0.5 h",2.1
same,blood plasma ratio at 1 h,"[3]; male, Sprague-Dawley, whole blood and plasma, intravenous, 1 mg/kg, time 1 h",5.5
same,blood plasma ratio at 2 h,"[3]; male, Sprague-Dawley, whole blood and plasma, intravenous, 1 mg/kg, time 2 h",17.8
same,blood plasma ratio at 4 h,"[3]; male, Sprague-Dawley, whole blood and plasma, intravenous, 1 mg/kg, time 4 h",48.9
same,blood plasma ratio at 8 h,"[3]; male, Sprague-Dawley, whole blood and plasma, intravenous, 1 mg/kg, time 8 h",114
same,blood plasma ratio,"[3]; male, Sprague-Dawley, whole blood and plasma, iv, 1 mg/kg, i.v. PK study, read-out: blood to plasma ratio at the initial sampling times",~1
same,Cmax,[3]; [12],1180 nM
same,Tmax,[3]; [12],0.17 h
same,clearance,[3]; [12],2.3 mL/min/kg
same,half-life,[3]; [12],36.6 h
same,Cmax,[3]; [13],39.3 nM
same,Tmax,[3]; [13],16 h
same,bioavailability,"[3]; male, Sprague-Dawley, whole blood, PO 1 mg/kg, blood, read-out: %F",9.29%
same,half-life,[3]; [13],23.2 h
same,Cmax,[3]; [14],261 nM
same,Tmax,[3]; [14],6 h
same,bioavailability,"[3]; male, Sprague-Dawley, whole blood, PO 10 mg/kg, blood, read-out: %F",9.56%
same,half-life,[3]; [14],29.5 h
same,Cmax,[3]; [15],669 nM
same,Tmax,[3]; [15],8 h
same,bioavailability,"[3]; male, Sprague-Dawley, whole blood, PO 25 mg/kg, blood, read-out: %F",8.72%
same,half-life,"[3]; male, Sprague-Dawley, whole blood, PO 25 mg/kg, blood, terminal half-life, T1/2∞",30.5 h
same,Vd,"[3]; male, Sprague-Dawley, whole blood, iv, 1 mg/kg, IV 1 mg/kg, blood, read-out: Vss",6.25 L/kg
same,Vd,"[3]; male, Sprague-Dawley, whole blood, iv, 1 mg/kg, IV 1 mg/kg, blood, read-out: Vz",6.54 L/kg
same,bioavailability,"[3]; male, Sprague-Dawley, whole blood, oral, blood, range over doses, read-out: %F (blood), rat oral bioavailability",8.72 to 9.56%
same,IC50,[4],2.8 nM
same,EC50,"[5]; range over n = 10 isolates, read-out: EC50 range, P. vivax Brazilian field isolates",1.2 to 62 nM
same,EC50,"[5]; read-out: Median EC50, P. vivax Brazilian field isolates",8 nM
same,"effect on 3D7 parasitemia, 4 x daily doses",[6]; 4 x daily doses of 50 mg/kg p.o. from day 3 post-infection,reduced the 3D7 parasitemia to baseline
same,tolerability / toxicity in SCID mice (in words),"[6]; 100 or 200 mg/kg p.o. single dose, 4 x 50 mg/kg p.o.",well tolerated; also recorded: no evidence of toxicity
same,"effect on 3D7 parasitemia, single dose regimen",[6]; either 100 or 200 mg/kg p.o. on day 3 post-infection,reduction of 3D7 parasitemia to baseline
same,solubility,[7],> 100 µM
